In BindingDB's records for doi:10.1021/jm960416g (Universidad Complutense, 1996) one finds Ki data, which are given here for two compounds.

Broadly, the Ki is a measure of affinity in units of concentration, obtained from inhibition or displacement. A higher Ki goes with lower affinity.

Structures are written as SMILES.

One assay has as its target D(2) dopamine receptor (Rattus norvegicus, UniProt P61169). Briefly: Binding affinity towards dopamine receptor D2 using [3H]-raclopride radioligand.
The target of assay [1] is T1, 5-hydroxytryptamine receptor 1A (Rattus norvegicus, UniProt P19327).
T1 sequence (P19327 whole entry): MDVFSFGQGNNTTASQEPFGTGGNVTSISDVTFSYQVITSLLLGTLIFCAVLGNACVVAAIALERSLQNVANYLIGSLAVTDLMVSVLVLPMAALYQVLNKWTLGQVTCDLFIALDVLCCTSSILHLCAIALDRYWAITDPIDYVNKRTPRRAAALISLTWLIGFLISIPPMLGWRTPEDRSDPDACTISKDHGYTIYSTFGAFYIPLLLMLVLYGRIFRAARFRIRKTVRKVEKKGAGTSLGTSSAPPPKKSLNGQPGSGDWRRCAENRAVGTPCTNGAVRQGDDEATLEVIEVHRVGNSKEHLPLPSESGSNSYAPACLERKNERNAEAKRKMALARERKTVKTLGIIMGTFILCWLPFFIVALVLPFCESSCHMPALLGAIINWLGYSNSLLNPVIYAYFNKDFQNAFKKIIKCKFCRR
Briefly: Binding affinity towards rat 5-hydroxytryptamine 1A receptor using [3H]8-OH-DPAT radioligand.

Chain of D(2) dopamine receptor (P61169 whole entry): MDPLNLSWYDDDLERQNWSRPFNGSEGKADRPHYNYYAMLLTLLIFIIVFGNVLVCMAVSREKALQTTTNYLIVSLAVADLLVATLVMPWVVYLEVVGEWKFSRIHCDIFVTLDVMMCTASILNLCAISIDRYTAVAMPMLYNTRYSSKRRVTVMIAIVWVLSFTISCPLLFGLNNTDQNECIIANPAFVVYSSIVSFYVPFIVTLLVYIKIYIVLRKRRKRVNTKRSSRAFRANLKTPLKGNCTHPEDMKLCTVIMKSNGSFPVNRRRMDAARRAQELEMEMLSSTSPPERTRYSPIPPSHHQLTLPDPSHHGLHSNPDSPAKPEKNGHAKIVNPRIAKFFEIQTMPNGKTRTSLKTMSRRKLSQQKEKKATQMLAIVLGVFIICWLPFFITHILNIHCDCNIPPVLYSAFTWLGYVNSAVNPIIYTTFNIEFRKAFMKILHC

For `O=c1n(CCN2CCN(c3ccc([N+](=O)[O-])cc3)CC2)c(O)c2n1CCCC2` [2-{2-[4-(4-Nitro-phenyl)-piperazin-1-yl]-ethyl}-tetrahydro-imidazo[1,5-a]pyridine-1,3-dione], the Ki (on D(2) dopamine receptor; in assay [1]) was above 10 µM in each case.

In the case of `O=c1n(CCCN2CCN(c3ccc([N+](=O)[O-])cc3)CC2)c(O)c2n1CCCC2` [2-{3-[4-(4-Nitro-phenyl)-piperazin-1-yl]-propyl}-tetrahydro-imidazo[1,5-a]pyridine-1,3-dione], the Ki (at D(2) dopamine receptor; in assay [1]) was above 10 µM each time.
